From PubChem BioAssay AID248 (DTP/NCI, 2004)
Values joined by “and” are separate entries in the source; they are usually repeats but may differ in a detail not shown here. Equal entries are not always repeated. Toxic doses and inconclusive results are not listed.

System: L1210 leukemia ip in BDF1 mice, survival T/C
Experiment: NCI In Vivo Anticancer Drug Screen. Data for tumor model L1210 Leukemia (intraperitoneal) in B6D2F1 (BDF1) mice
Settings: endpoint: mean survival time, higher = longer survival
Summary of the method: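 Ratio derived from survival: compound-dosed mice over vehicle-dosed mice, all bearing a transplantable tumor.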

[1] = dose: 100.0 mg/kg/injection, schedule: Q04DX003 (ip), vehicle: saline
[2] = dose: 200.0 mg/kg/injection, schedule: Q04DX003 (ip), vehicle: saline
[3] = dose: 400.0 mg/kg/injection, schedule: Q04DX003 (ip), vehicle: saline
[4] = dose: 100.0 mg/kg/injection, schedule: Q01DX009 (ip), vehicle: Klucel (hydroxypropylcellulose) (HPC)
[5] = dose: 100.0 mg/kg/injection, schedule: Q04DX003 (ip), vehicle: Klucel (hydroxypropylcellulose) (HPC)
[6] = dose: 200.0 mg/kg/injection, schedule: Q01DX009 (ip), vehicle: Klucel (hydroxypropylcellulose) (HPC)
[7] = dose: 200.0 mg/kg/injection, schedule: Q04DX003 (ip), vehicle: Klucel (hydroxypropylcellulose) (HPC)
[8] = dose: 400.0 mg/kg/injection, schedule: Q04DX003 (ip), vehicle: Klucel (hydroxypropylcellulose) (HPC)
[9] = dose: 50.0 mg/kg/injection, schedule: Q01DX009 (ip), vehicle: saline
[10] = dose: 100.0 mg/kg/injection, schedule: Q01DX009 (ip), vehicle: saline
[11] = dose: 50.0 mg/kg/injection, schedule: Q01DX001 (ip), vehicle: saline
[12] = dose: 100.0 mg/kg/injection, schedule: Q01DX001 (ip), vehicle: saline
[13] = dose: 200.0 mg/kg/injection, schedule: Q01DX001 (ip), vehicle: saline
[14] = dose: 400.0 mg/kg/injection, schedule: Q01DX001 (ip), vehicle: saline

Q: For O=C(c1cccc([N+](=O)[O-])c1)c1[nH]c2sc3c(c2c1O)CCCC3, which T/C (dose: 6.25 mg/kg/injection, schedule: Q01DX009 (ip), vehicle: Klucel (hydroxypropylcellulose) (HPC)) is on record?
A: 92 % of control

Q: What about the T/C (dose: 12.5 mg/kg/injection, schedule: Q01DX009 (ip), vehicle: Klucel (hydroxypropylcellulose) (HPC)) of the same compound?
A: 94 % of control and 91 % of control

Q: And the T/C (dose: 25.0 mg/kg/injection, schedule: Q01DX009 (ip), vehicle: Klucel (hydroxypropylcellulose) (HPC))?
A: 89 % of control

Q: Which results are given for ClC1=C(Cl)C2(Cl)CCC1(Cl)C2(Cl)Cl?
A: T/C [1]: 101 % of control; T/C [2]: 97 % of control; T/C [3]: 108 % of control

Q: How did the T/C [4] turn out when CCCCNC(=O)Nc1c(C)cccc1Cl was run?
A: 101 % of control

Q: And the T/C [5]?
A: 101 % of control

Q: And the T/C [6]?
A: 90 % of control

Q: And the T/C [7]?
A: 97 % of control

Q: What about the T/C (dose: 400.0 mg/kg/injection, schedule: Q01DX009 (ip), vehicle: Klucel (hydroxypropylcellulose) (HPC)) of the same compound?
A: 87 % of control

Q: What about the T/C [8] of the same compound?
A: 88 % of control

Q: O=C(OCC1OC(n2c(=O)[nH]c3scnc3c2=O)C(OC(=O)c2ccccc2)C1OC(=O)c1ccccc1)c1ccccc1 (stereo unspecified) was tested. Which T/C (dose: 100.0 mg/kg/injection, schedule: Q01DX005 (ip), vehicle: saline) did it give?
A: 93 % of control

Q: What about the T/C (dose: 200.0 mg/kg/injection, schedule: Q01DX005 (ip), vehicle: saline) of the same compound?
A: 86 % of control

Q: What does the source list for COc1cc(OC)cc(C(N)=O)c1?
A: T/C (dose: 50.0 mg/kg/injection, schedule: Q01DX009 (ip), vehicle: Klucel (hydroxypropylcellulose) (HPC)): 88 % of control; T/C [4]: 97 % of control; T/C [5]: 86 % of control; T/C [6]: 91 % of control; T/C [8]: 86 % of control

Q: What does the source list for CCCCC(CC)COP(=O)(CC(CC)CCCC)OCC(CC)CCCC (stereo unspecified)?
A: T/C [9]: 111 % of control; T/C [10]: 107 % of control

Q: How did the T/C (dose: 12.5 mg/kg/injection, schedule: Q04DX002 (ip), vehicle: Klucel (hydroxypropylcellulose) (HPC)) turn out when CNCC1C(c2ccc(OC)cc2)C1c1ccc(OC)cc1 (stereo unspecified) was run?
A: 102 % of control

Q: What about the T/C (dose: 25.0 mg/kg/injection, schedule: Q04DX002 (ip), vehicle: Klucel (hydroxypropylcellulose) (HPC)) of the same compound?
A: 108 % of control

Q: What about the T/C (dose: 50.0 mg/kg/injection, schedule: Q04DX002 (ip), vehicle: Klucel (hydroxypropylcellulose) (HPC)) of the same compound?
A: 94 % of control

Q: Which results are given for CC(O)CN1CC(C)N(CC(C)O)CC1C (stereo unspecified)?
A: T/C [10]: 104 % of control; T/C [1]: 100 % of control; T/C (dose: 200.0 mg/kg/injection, schedule: Q01DX009 (ip), vehicle: saline): 102 % of control; T/C [2]: 86 % of control; T/C (dose: 400.0 mg/kg/injection, schedule: Q01DX009 (ip), vehicle: saline): 98 % of control; T/C [3]: 88 % of control

Q: How did the T/C (dose: 75.0 mg/kg/injection, schedule: Q01DX001 (ip), vehicle: other) turn out when CN(C)C(=S)N=Nc1c(O)[nH]c2ccccc12 was run?
A: 103 % of control

Q: And the T/C (dose: 150.0 mg/kg/injection, schedule: Q01DX001 (ip), vehicle: other)?
A: 96 % of control

Q: And the T/C (dose: 300.0 mg/kg/injection, schedule: Q01DX001 (ip), vehicle: other)?
A: 105 % of control

Q: With Cc1c(C)c(C)c(CN2CC(=O)c3ccccc3C2=O)c(C)c1C as the compound, how does the T/C (dose: 100.0 mg/kg/injection, schedule: Q04DX002 (ip), vehicle: Klucel (hydroxypropylcellulose) (HPC)) read?
A: 89 % of control

Q: What about the T/C (dose: 200.0 mg/kg/injection, schedule: Q04DX002 (ip), vehicle: Klucel (hydroxypropylcellulose) (HPC)) of the same compound?
A: 104 % of control

Q: And the T/C (dose: 400.0 mg/kg/injection, schedule: Q04DX002 (ip), vehicle: Klucel (hydroxypropylcellulose) (HPC))?
A: 89 % of control

Q: Which T/C (dose: 100.0 mg/kg/injection, schedule: Q01DX001 (ip), vehicle: other) does the source give for COc1ccccc1C1CCCCC1=O (stereo unspecified) here?
A: 105 % of control

Q: And the T/C (dose: 200.0 mg/kg/injection, schedule: Q01DX001 (ip), vehicle: other)?
A: 96 % of control

Q: What about the T/C (dose: 400.0 mg/kg/injection, schedule: Q01DX001 (ip), vehicle: other) of the same compound?
A: 89 % of control

Q: With Cc1cc(C)c(C[N+](C)(C)C)c(C)c1C as the compound, how does the T/C [11] read?
A: 102 % of control

Q: How did the T/C (dose: 15.0 mg/kg/injection, schedule: Q01DX001 (ip), vehicle: saline) turn out when O=C(NCCc1ccc(S(=O)(=O)Nc2ccc(N=Nc3ccc(N=Nc4ccccc4)cc3)cc2)cc1)C(N1CC1)(N1CC1)N1CC1 was run?
A: 104 % of control

Q: What about the T/C (dose: 30.0 mg/kg/injection, schedule: Q01DX001 (ip), vehicle: saline) of the same compound?
A: 106 % of control

Q: What does the source list for Nc1c(C(F)(F)F)[nH]c(Cl)nc1=S?
A: T/C (dose: 29.0 mg/kg/injection, schedule: Q01DX Z (ip), vehicle: methylcellulose (MC)): 105 % of control; T/C (dose: 66.0 mg/kg/injection, schedule: Q01DX Z (ip), vehicle: methylcellulose (MC)): 94 % of control

Q: Cc1ccc(NC(=O)Nc2ccc(S(N)(=O)=O)cc2)c([N+](=O)[O-])c1 was tested. Which T/C [5] did it give?
A: 88 % of control

Q: And the T/C [7]?
A: 89 % of control

Q: And the T/C [8]?
A: 88 % of control

Q: How did the T/C [11] turn out when OC1Cn2cc(Br)c[n+]2C1 (stereo unspecified) was run?
A: 94 % of control

Q: And the T/C [12]?
A: 116 % of control

Q: What about the T/C [13] of the same compound?
A: 102 % of control

Q: And the T/C [14]?
A: 96 % of control

Q: With CCCCCCCCCC(=O)OCC(COC(=O)CCCCCCCCC)OC(=O)CCCCCCCCC as the compound, how does the T/C (dose: 100.0 mg/kg/injection, schedule: Q01DX009 (sc), vehicle: olive oil, sesame oil, peanut oil) read?
A: 103 % of control

Q: And the T/C (dose: 100.0 mg/kg/injection, schedule: Q04DX003 (sc), vehicle: olive oil, sesame oil, peanut oil)?
A: 101 % of control

Q: And the T/C (dose: 200.0 mg/kg/injection, schedule: Q01DX009 (sc), vehicle: olive oil, sesame oil, peanut oil)?
A: 101 % of control

Q: And the T/C (dose: 200.0 mg/kg/injection, schedule: Q04DX003 (sc), vehicle: olive oil, sesame oil, peanut oil)?
A: 97 % of control

Q: What about the T/C (dose: 400.0 mg/kg/injection, schedule: Q01DX009 (sc), vehicle: olive oil, sesame oil, peanut oil) of the same compound?
A: 104 % of control

Q: And the T/C (dose: 400.0 mg/kg/injection, schedule: Q04DX003 (sc), vehicle: olive oil, sesame oil, peanut oil)?
A: 104 % of control

Q: CCC(C)C(C#N)(CCN1CCCCC1)Cc1cccc2ccccc12 (stereo unspecified) was tested. Which T/C (dose: 25.0 mg/kg/injection, schedule: Q04DX003 (ip), vehicle: Klucel (hydroxypropylcellulose) (HPC)) did it give?
A: 109 % of control

Q: What about the T/C (dose: 50.0 mg/kg/injection, schedule: Q04DX003 (ip), vehicle: Klucel (hydroxypropylcellulose) (HPC)) of the same compound?
A: 98 % of control

Q: And the T/C (dose: 100.0 mg/kg/injection, schedule: Q01DX009 (ip), vehicle: saline with Tween-80)?
A: 96 % of control

Q: And the T/C [5]?
A: 95 % of control

Q: Which T/C (dose: 375.0 mg/kg/injection, schedule: Q01DX001 (ip), vehicle: carboxymethylcellulose (CMC)) does the source give for O=NN(CCCl)C(=O)Nc1ccc(Oc2ccc(NC(=O)N(CCCl)N=O)cc2)cc1 here?
A: 192 % of control

Q: And the T/C (dose: 500.0 mg/kg/injection, schedule: Q01DX001 (ip), vehicle: carboxymethylcellulose (CMC))?
A: 198 % of control

Q: What about the T/C (dose: 750.0 mg/kg/injection, schedule: Q01DX001 (ip), vehicle: carboxymethylcellulose (CMC)) of the same compound?
A: 190 % of control

Q: What about the T/C (dose: 1000.0 mg/kg/injection, schedule: Q01DX001 (ip), vehicle: carboxymethylcellulose (CMC)) of the same compound?
A: 154 % of control and 246 % of control

Q: What about the T/C (dose: 1250.0 mg/kg/injection, schedule: Q01DX001 (ip), vehicle: carboxymethylcellulose (CMC)) of the same compound?
A: 104 % of control

Q: And the T/C (dose: 1500.0 mg/kg/injection, schedule: Q01DX001 (ip), vehicle: carboxymethylcellulose (CMC))?
A: 122 % of control

Q: What about the T/C (dose: 2000.0 mg/kg/injection, schedule: Q01DX001 (ip), vehicle: carboxymethylcellulose (CMC)) of the same compound?
A: 86 % of control

Q: Which T/C [11] does the source give for O=c1c(=NNc2ccccc2)c(=O)c2ccccc12 here?
A: 94 % of control

Q: What about the T/C [12] of the same compound?
A: 94 % of control

Q: And the T/C [13]?
A: 88 % of control

Q: What about the T/C [14] of the same compound?
A: 102 % of control

Q: Which T/C [5] does the source give for CC(C)(C)N1CC(C(O)c2ccccc2)C1c1ccccc1 (stereo unspecified) here?
A: 98 % of control

Q: And the T/C [7]?
A: 95 % of control

Q: O=S1(=O)CCc2ccccc21 was tested. Which T/C [12] did it give?
A: 97 % of control

Q: What about the T/C [13] of the same compound?
A: 111 % of control

Q: What about the T/C [14] of the same compound?
A: 104 % of control

Q: Which T/C [1] does the source give for CC(=O)CCC(C)N=Cc1ccc(N(C)C)cc1 (stereo unspecified) here?
A: 92 % of control

Q: What about the T/C [2] of the same compound?
A: 91 % of control

Q: And the T/C [3]?
A: 89 % of control

Q: Which results are given for CCCCCCCCCC/C=C/c1c(C)[nH]c2ccccc2c1=O?
A: T/C (dose: 100.0 mg/kg/injection, schedule: Q01DX009 (ip), vehicle: alcohol): 98 % of control; T/C (dose: 100.0 mg/kg/injection, schedule: Q04DX003 (ip), vehicle: alcohol): 93 % of control; T/C (dose: 200.0 mg/kg/injection, schedule: Q04DX003 (ip), vehicle: alcohol): 100 % of control; T/C (dose: 400.0 mg/kg/injection, schedule: Q04DX003 (ip), vehicle: alcohol): 88 % of control

Q: Nc1nc(N)c(N=Nc2ccccc2S(=O)(=O)O)c(=O)[nH]1 was tested. Which T/C (dose: 12.5 mg/kg/injection, schedule: Q01DX009 (ip), vehicle: saline) did it give?
A: 97 % of control

Q: What about the T/C (dose: 25.0 mg/kg/injection, schedule: Q01DX009 (ip), vehicle: saline) of the same compound?
A: 97 % of control

Q: And the T/C [9]?
A: 100 % of control

Q: And the T/C (dose: 50.0 mg/kg/injection, schedule: Q04DX003 (ip), vehicle: saline)?
A: 101 % of control

Q: And the T/C [12]?
A: 96 % of control

Q: And the T/C [13]?
A: 98 % of control

Q: What about the T/C [14] of the same compound?
A: 104 % of control
